# Measurements published in US20060093575A1, “Oxaliplatin anti-resistance agent” (CENTRE NATIONAL DE LA RECHERCHE SCIENTIFIQUE, priority 2002, published 2006).
# Read-outs that look alike come from different tables or passages of the source.
# Key:
# HCT116R [1] = experiment: degree of apoptosis by cytofluorometry, Mitocapture dye; format: cell-based; conditions: treated 24 hours
# Method: (§1) Legend to FIGS. 3A and 3B: cells HCT116 (and R) and SW620 (and R) are treated, prior to determination of the degree of apoptosis, for 24 hours by arsenic trioxide (As), lonidamine (LND) or are left without treatment (control, Co). The degree of apoptosis is then determined by cytofluorometry after labeling with the dye “Mitocapture” which fluoresces differently in apoptotic cells and intact cells (with relation to mitochondrial integrity).
# SW620R [2] = experiment: as above; format: cell-based; conditions: treated 24 hours
# Method: as §1
# Bax in HCT116/R1 cells [3] = experiment: overall level of Bax expression on exposure to oxaliplatin; format: cell-based
# From the text: (§2) The overall level of Bax expression is equivalent for the lines HCT116/S, HCT116/R1 and HCT116/Rev1.
# Bax in HCT116/S cells = experiment: as above; format: cell-based
# From the text: as §2
# Bax in HCT116/Rev1 cells [4] = experiment: as above; format: cell-based
# From the text: as §2
# Bak in HCT116/Rev1 cells = experiment: Bak activation, active-conformation antibody, flow cytometry; format: cell-based; conditions: HCT116/Rev1, 12, 24 or 48 hours with 15 μM
# Method: (§3) Legend to FIGS. 5A to 5E: Detection of activation of Bak by an antibody specific for the active conformation of Bak and intracellular analysis by flow cytometry. The cells are fixed, made permeable and then incubated with the antibody specific for the active conformation of […]. Finally visualization is carried out by incubation with the secondary antibody coupled to FITC. Labeling of untreated cells is shown by the curve in the fine black line. That of treated cells (12, 24 or 48 hours with 15 μM oxaliplatin) is shown by the curves in the thick black line. The appearance of strongly labeled cells (curves in the thick black line shifted to the right) gives evidence of activation of Bak. This experiment was reproduced two times.
# Bak in HCT116/Rev2 cells = experiment: as above; format: cell-based; conditions: HCT116/Rev2, 12, 24 or 48 hours with 15 μM
# Method: as §3
# Bak in HCT116/R2 cells = experiment: as above; format: cell-based; conditions: HCT116/R2, 12, 24 or 48 hours with 15 μM
# Method: as §3
# Bak in HCT116/R1 cells = experiment: as above; format: cell-based; conditions: HCT116/R1, 12, 24 or 48 hours with 15 μM
# Method: as §3
# HCT116R [5] = conditions: treated 48 hours
# Method: A control is performed without contact with any medication (Co).
# SW620/R = experiment: colorimetric cell growth test, medication incubated 48 hours; conditions: for relative resistance (IC50 resistant clone / IC50 parental clone): SW620/R versus SW620; for IC50: read-out: IC50 (concentration that reduces cell growth by 50%); for crossed resistance: SW620R versus SW620
# HCT116/Rev1 = experiment: oxaliplatin sensitivity of variant line versus HCT116/S; format: cell-based; conditions: HCT116/Rev1, after culture without oxaliplatin for 6 months
# From the text: the variant HCT116/Rev1 derived from the line HCT116/R1 after culture in the absence of oxaliplatin for 6 months.
# HCT116/R = experiment: colorimetric cell growth test, medication incubated 48 hours; conditions: for relative resistance (IC50 resistant clone / IC50 parental clone): HCT116/R versus HCT116; for IC50: read-out: IC50 (concentration that reduces cell growth by 50%); for crossed resistance: HCT116R versus HCT116
# SW620 = experiment: as above; conditions: for relative resistance (IC50 resistant clone / IC50 parental clone): SW620 (parental clone); for IC50: read-out: IC50 (concentration that reduces cell growth by 50%)
# HCT116/Rev2 = experiment: oxaliplatin resistance of variant line versus HCT116/S; format: cell-based; conditions: HCT116/Rev2, after culture without oxaliplatin for 15 months
# From the text: the variant HCT116/Rev2 derived from the line HCT116/R2 after culture in the absence of oxaliplatin for 15 months. This variant is characterized by an only partial loss of oxaliplatin resistance (variant HCT116/Rev2 is 16 times more resistant than line HCT116/S).
# SW620R [6] = experiment: degree of apoptosis by cytofluorometry, annexine V labeling; format: cell-based; conditions: treated 48 hours
# Method: (§4) A control is performed without contact with any medication (Co). The degree of apoptosis is then determined by cytofluorometry using labeling by annexine V. Independently, activation of the apoptosis effector protein Caspase 3 was evaluated in cells HCT116 and HCT116R after treatment for 24 hours with oxaliplatin in order to validate the entry into apoptosis of the cells as observed by cytofluorometry (FIG. 2C).
# [7] = test system: Bax protein in HCT116 cells; experiment: detection of Bax by Western blot; format: cell-based; conditions: HCT116, 15 μM for 48 hours (or 50 μM for 24 hours)
# Method: (§5) Legend to FIG. 1: detection of Bax by Western blot in the absence of, or under the effect of treatment, with oxaliplatin in the HCT116 model. The cells are not treated or treated with oxaliplatin at a level of 15 μM for 48 hours (or 50 μM for 24 hours) before preparation of cell lysates. Tubulin expression is used as a control of equivalent protein deposits.
# [8] = test system: Bax protein in HCT116R cells; experiment: detection of Bax by Western blot; format: cell-based; conditions: 15 μM for 48 hours (or 50 μM for 24 hours)
# Method: as §5
# [9] = test system: Caspase 3 in HCT116R cells; experiment: activation of apoptosis effector protein Caspase 3; format: cell-based; conditions: treated 24 hours
# Method: as §4
# HCT116/R1 = experiment: oxaliplatin resistance of variant line versus HCT116/S; format: cell-based; conditions: HCT116/R1 clone
# From the text: the line HCT116/R1 derived from the line HCT116 after acquisition of oxaliplatin resistance and cloning (corresponding to a clone 30 times more resistant than the sensitive reference line HCT116/S),
# Bax in HCT116/R1 cells [10] = experiment: Bax activation, active-conformation antibody, flow cytometry; format: cell-based; conditions: HCT116/R1, 12, 24 or 48 hours with 15 μM, compared to HCT116/S
# Method: (§6) Legend to FIGS. 4A to 4C: Detection of activation of Bax by an antibody specific for the active conformation of Bax and intracellular analysis by flow cytometry. The cells are fixed, permeabilized and then incubated with the antibody specific for the active conformation of […]. Finally visualization is carried out by incubation with the secondary antibody coupled with FITC. The labeling of untreated cells is shown by the curve in fine black line. That of treated cells (12, 24 or 48 hours with 15 μM oxaliplatin) is shown by the curves in thick black line. The appearance of strongly labeled cells (curves in thick black line shifted to the right) gives evidence of activation of Bax.
# Bax in HCT116/Rev1 cells [11] = experiment: as above; format: cell-based; conditions: HCT116/Rev1, 12, 24 or 48 hours with 15 μM
# Method: as §6
# HCT116 = experiment: colorimetric cell growth test, medication incubated 48 hours; conditions: for relative resistance (IC50 resistant clone / IC50 parental clone): HCT116 (parental clone); for IC50: read-out: IC50 (concentration that reduces cell growth by 50%)
# [12] = SW620/R, 48 hours, average ± SD, at least three experiments
# [13] = HCT116/R, 48 hours, average ± SD, at least three experiments
# [14] = SW620, 48 hours, average ± SD, at least three experiments
# [15] = HCT116, 48 hours, average ± SD, at least three experiments
smiles,measurement,setting,value
O=C(O)c1nn(Cc2ccc(Cl)cc2Cl)c2ccccc12 [lonidamine],apoptotic induction (Mitocapture),HCT116R [1],resistant to apoptotic induction
same,apoptotic induction (Mitocapture),SW620R [2],resistant to apoptotic induction
"O=C1[O][Pt]2([NH][C@@H]3CCCC[C@H]3[NH]2)[O]C1=O [Oxaliplatin, [(1R, 2R)-1,2-cyclohexanediamine-N,N′] [oxalato (2-)-O,O′] platinum]",overall level of Bax expression,Bax in HCT116/R1 cells [3],induces an over-expression of Bax
same,overall level of Bax expression,Bax in HCT116/S cells,induces an over-expression of Bax
same,overall level of Bax expression,Bax in HCT116/Rev1 cells [4],induces an over-expression of Bax
same,activation of Bak,Bak in HCT116/Rev1 cells,repeat the level of activation of Bak of the sensitive line HCT116/S
same,activation of Bak,Bak in HCT116/Rev2 cells,repeat the level of activation of Bak of the sensitive line HCT116/S
same,activation of Bak,Bak in HCT116/R2 cells,delayed
same,activation of Bak,Bak in HCT116/R1 cells,delayed
same,induction of apoptosis (annexine V),HCT116R [5],resist induction of apoptosis
same,relative resistance (IC50 resistant clone / IC50 parental clone),SW620/R,18.3
same,times more resistant than the original line,"SW620/R; SW620R versus SW620, as stated in text",20 times
same,IC50,SW620/R; [12],62.3 ± 12.9 µM
same,oxaliplatin sensitivity,HCT116/Rev1,comparable to HCT116/S
same,relative resistance (IC50 resistant clone / IC50 parental clone),HCT116/R,68.4
same,IC50,HCT116/R; [13],21.9 ± 6.3 µM
same,relative resistance (IC50 resistant clone / IC50 parental clone),SW620,1.0
same,IC50,SW620; [14],3.4 ± 0.6 µM
same,times more resistant than line HCT116/S,HCT116/Rev2,16 times
same,induction of apoptosis (annexine V),SW620R [6],resist induction of apoptosis
same,Bax protein expression (Western blot),[7],over-expresses it
same,Bax protein expression (Western blot),[8],does not express the Bax protein
same,activation of caspase 3,[9],lack of activation of caspase 3
same,times more resistant than sensitive reference line HCT116/S,HCT116/R1,30 times
same,activation of Bax,Bax in HCT116/R1 cells [10],reduced and delayed
same,activation of Bax,Bax in HCT116/Rev1 cells [11],return to early activation of Bax
same,relative resistance (IC50 resistant clone / IC50 parental clone),HCT116,1.0
same,IC50,HCT116; [15],0.32 ± 0.08 µM
CCc1c2c(nc3ccc(OC(=O)N4CCC(N5CCCCC5)CC4)cc13)-c1cc3c(c(=O)n1C2)COC(=O)[C@]3(O)CC [Irinotecan],IC50,"SW620/R; Homo sapiens, SW-620, 48 h",11.7 ± 2.5 µM
same,crossed resistance,SW620/R,very little or no crossed resistance
same,crossed resistance,HCT116/R,very little or no crossed resistance
same,IC50,"HCT116/R; Homo sapiens, HCT-116, 48 h",9.5 ± 4.2 µM
same,IC50,"SW620; Homo sapiens, SW-620, 48 h",23.3 ± 0.6 µM
same,IC50,"HCT116; Homo sapiens, HCT-116, 48 h",7.7 ± 3.8 µM
N.N.[Cl][Pt][Cl] [Cisplatin],relative resistance (IC50 resistant clone / IC50 parental clone),SW620/R,(1.4)
same,crossed resistance,SW620/R,very little or no crossed resistance
same,IC50,SW620/R; [12],9 ± 1.7 µM
same,relative resistance (IC50 resistant clone / IC50 parental clone),HCT116/R,(2.9)
same,crossed resistance,HCT116/R,very little or no crossed resistance
same,IC50,HCT116/R; [13],13.4 ± 6.6 µM
same,relative resistance (IC50 resistant clone / IC50 parental clone),SW620,(1.0)
same,IC50,SW620; [14],7 ± 1.7 µM
same,relative resistance (IC50 resistant clone / IC50 parental clone),HCT116,(1.0)
same,IC50,HCT116; [15],4.7 ± 1.8 µM
